Measured values from patent US20260284055A1, “FGFR4 INHIBITOR COMPOSITION, PREPARATION METHOD THEREFOR AND PHARMACEUTICAL USE THEREOF” (Abbisko Therapeutics Co., Ltd., priority 2023, published 2026).

Columns and labels:
Assay type in all cases: physicochemical
[1] = Particle size distribution of active pharmaceutical ingredient (Malvern Mastersizer 2000)
Experimental: The active pharmaceutical ingredient was mechanically milled, and samples were taken at different milling time points. The particle size distribution was determined using a Malvern Mastersizer 2000 laser particle size analyzer, and the particle morphology was observed using a polarizing microscope. [table]

[2] = Content determination of active pharmaceutical ingredient (HPLC)
Experimental: Chromatographic conditions: Octadecylsilane-bonded silica gel was used as the filler (Waters XBridge® C18, 4.6×150 mm, […] chromatographic column or chromatographic column with equivalent performance); a 0.1 vol % trifluoroacetic acid solution was used as mobile phase A, and a solution of 0.1 vol % trifluoroacetic acid in acetonitrile was used as mobile phase B; isocratic elution was performed with mobile phase A-mobile phase B (70:30); the detection wavelength was 232 nm, the flow rate was 1.0 mL/min, the column temperature was 40° C., the sample injection volume was 10 μL, and the run time was 10 min.
(§1) The inventors first conducted a study on the physicochemical properties of the active pharmaceutical ingredient. The specific procedures were as follows: The active pharmaceutical ingredient and different auxiliary materials were mixed at different ratios and then placed under different conditions; the samples were taken out at different time points and then observed for appearance, hygroscopic weight gain, active pharmaceutical ingredient content, related substance content, etc.

[3] = Micromeritic properties of powders (angle of repose, bulk density, tap density, Carr index, flowability)
[4] = Related substances (HPLC), compatibility and stability
Experimental: Gradient elution was performed according to the table below, with a run time of 50.0 min and a post-run time of 5 min.
as §1

[5] = Hygroscopic weight gain (gravimetric method)
Experimental: Gravimetric method: The initial weight of a sample was measured, recorded as W1, and then the weight of the sample after being placed under high-humidity conditions for a certain period of time was measured, recorded as W2; the percentage of hygroscopic weight gain was calculated based on the weight difference, using the following calculation formula: (W2−W1)/W1*100%.
as §1

[6] = API of the capsule batch of the same table line

C=CC(=O)N[C@H]1CCOC[C@H]1Nc1ncc2cc(-c3c(F)c(OC)cc(OC)c3F)nc(N3CC(C)(OC)C3)c2n1 [Test 2]
Particle size distribution D10 [1]: 1.509 μm | Particle size distribution D50 [1]: 9.682 μm | Particle size distribution D90 [1]: D90 = 63.594 μm

C=CC(=O)N[C@H]1CCOC[C@H]1Nc1ncc2cc(-c3c(F)c(OC)cc(OC)c3F)nc(N3CC(C)(OC)C3)c2n1.Cc1ccc(S(=O)(=O)O)cc1.O [Active pharmaceutical ingredient, p-toluenesulfonate monohydrate of the compound of formula (I)]
Content ([2]; 0 d): 100.5% | Content ([2]; 25° C./92.5% RH, 30 d): 99.5% | Content ([2]; 40° C./75% RH, 30 d): 98.6% | Content ([2]; 60° C., 30 d): 102.5% | Content ([2]; Light exposure, 10 d): 96.5% | Angle of repose [3]: 44.66 ° | Bulk density [3]: 0.447 g/mL | Carr index [3]: 40% | Tap density [3]: 0.740 g/mL | Related substance (%) ([4]; 0 d): 0.66% | Related substance (%) ([4]; 25° C./92.5% RH (open), 30 d): 0.98% | Related substance (%) ([4]; 25° C./92.5% RH (open), 30 d, listed as active pharmaceutical ingredient): slight increase in impurities | Related substance (%) ([4]; 40° C./75% RH (open), 30 d): 0.58% | Related substance (%) ([4]; 40° C./75% RH (open), 30 d, listed as active pharmaceutical ingredient): remained stable | Related substance (%) ([4]; 60° C. (open), 30 d): 0.66% | Related substance (%) ([4]; 60° C. (open), 30 d, listed as active pharmaceutical ingredient): remained stable | RRT = 0.27 related substance content ([4]; API): <0.05% | RRT = 0.44 related substance content ([4]; API): 0.09% | RRT = 0.56 related substance content ([4]; API): <0.05% | RRT = 0.71 related substance content ([4]; API): 0.05% | RRT = 0.74 related substance content ([4]; API): 0.06% | RRT = 0.88 related substance content ([4]; API): 0.06% | RRT = 0.97 related substance content ([4]; API): <0.05% | RRT = 1.05 related substance content ([4]; API): <0.05% | RRT = 1.09 related substance content ([4]; API): <0.05% | RRT = 1.27 related substance content ([4]; API): 0.20% | RRT = 2.00 related substance content ([4]; API): 0.14% | Related substance ([4]; API): 0.60% | API impurities: Single impurity [4, 6]: Single impurity < 0.05% | API impurities: Total impurities [4, 6]: Total impurities < 0.05% | Related substance (%) ([4]; Light exposure (open), 10 d): 0.64% | Related substance (%) ([4]; Light exposure (open), 10 d, listed as active pharmaceutical ingredient): remained stable | single impurity (RRT=0.44) ([4]; after 10 days of exposure to light): 0.07% | single impurity (RRT=0.44) ([4]; before exposure to light): < 0.05% | Percentage change in hygroscopic weight gain ([5]; 25° C./92.5% RH, 10 d): 0.6% | Percentage change in hygroscopic weight gain ([5]; 25° C./92.5% RH, 30 d): 0.3% | Percentage change in hygroscopic weight gain ([5]; 40° C./75% RH, 10 d): 0.2% | Percentage change in hygroscopic weight gain ([5]; 40° C./75% RH, 30 d): −0.3% | Hygroscopicity ([5]; API alone): not highly hygroscopic

C=CC(=O)N[C@H]1CCOC[C@H]1Nc1ncc2cc(-c3c(F)c(OC)cc(OC)c3F)nc(N3CC(C)(OC)C3)c2n1 [Test 1]
Particle size distribution D10 [1]: 2.168 μm | Particle size distribution D50 [1]: 14.763 μm | Particle size distribution D90 [1]: D90 = 125.775 μm

C=CC(=O)N[C@H]1CCOC[C@H]1Nc1ncc2cc(-c3c(F)c(OC)cc(OC)c3F)nc(N3CC(C)(OC)C3)c2n1 [Test 0]
Particle size distribution D50 [1]: 155.607 μm | Particle size distribution D90 [1]: 333.563 μm

C=CC(=O)N[C@H]1CCOC[C@H]1Nc1ncc2cc(-c3c(F)c(OC)cc(OC)c3F)nc(N3CC(C)(OC)C3)c2n1 [Test 3]
Particle size distribution D10 [1]: 1.298 μm | Particle size distribution D50 [1]: 8.279 μm | Particle size distribution D90 [1]: D90 = 43.137 μm
